Ends that are not written are not given here.
Assays:
[1] = system: antiserum against ESPGPERVW peptide of human VGF; format: binding; settings: for inhibition of binding of the antiserum to labeled peptide: 1, 10, and 100 pmol of the peptides
Method: Namely, to 100 μL of antiserum diluted 9×10^5 folds with RIA buffer, 100 μL of RIA buffer containing a fixed amount of [^125I]-labeled Peptide 1 (approximately 20000 cpm, 500-550 Bq, approximately 9 fmol in terms of peptide amount) and 100 μL of RIA buffer solutions each containing a sequentially diluted VGF-derived peptide were added, this was incubated at 4° C. for 40 hours, and the labeled Peptide 1 and VGF-derived peptide were competitively bound to the antibody in the antiserum. As controls, reactions that use RIA buffer instead of the antiserum to measure non-specific binding, and reactions that use RIA buffer instead of VGF-derived peptide solutions to measure the maximum binding level were carried out. Reactions for non-specific binding were performed in quadruplicates, and the other reactions were performed in duplicates, and for each of the reactants, the immune complex was precipitated as in the above-mentioned antibody titer measurements, and its radioactivity (cpm) was measured. The average radioactivity of non-specific binding reaction is defined as non-specific binding level N, the radioactivity value for each VGF-derived peptide addition reaction is defined as Y, and the radioactivity value of maximum binding reaction is defined as Z. The percentage ratio (B/B0) of antiserum specific binding level (B) with peptide addition to the maximum binding level (B0), was determined using the following formula.
B/B0(%)={(Y−N)/(Z−N)}×100
Accordingly, the amount of peptide that achieves 50% B/B0, more specifically, the amount of peptide that yields 50% inhibition of the maximum binding level, was used as an indicator of the peptide binding activity to the antiserum.

[2] = system: cardiac cells of the apoaequorin-expressing mice; assay: Intracellular calcium ion increase (aequorin luminescence), heart; format: cell-based, mouse
Method: (§1) A hypothalamus, pituitary gland, kidney, heart, blood vessel, or a portion of brain tissue is collected from transgenic mice systemically expressing apoaequorin (WO02/010371) produced by introducing an apoaequorin gene expression vector into fertilized eggs. The obtained hypothalamus, pituitary gland, kidney, heart, blood vessel, or brain tissue is cut finely into pieces, suspended in a medium containing coelenterazine, and then incubated to incorporate coelenterazine into the cells to form aequorin (a complex of apoaequorin and coelenterazine). Since aequorin luminesces upon binding to intracellular calcium ions, the relative luminescence level in cells before and after addition of a medium containing the peptide or a pharmaceutically acceptable salt thereof is measured in a luminometer every second over time and is used as an indicator of intracellular calcium ion concentration. Increase in the relative luminescence level due to addition of the peptide or pharmaceutically acceptable salt thereof confirms that the peptide or pharmaceutically acceptable salt thereof has the activity to increase intracellular calcium ion concentration.
(§2) Whether Peptides 1 to 8 synthesized in Example 2 have the activity of increasing intracellular calcium ion concentration was investigated using the organs of transgenic mice introduced with the apoaequorin gene and systemically expressing apoaequorin (hereinafter referred to as apoaequorin-expressing mice). In apoaequorin-expressing mouse cells, light is emitted when apoaequorin binds to a calcium ion in the presence of the luminescent substrate coelenterazine and thus the intracellular calcium ion concentration can be monitored. Patent Document (WO02/010371) discloses the method for producing apoaequorin-expressing mice, method for evaluating biologically active substances that use biological samples derived from the mice, and experimental results of evaluating biologically active peptides using the mouse organs as shown below. […] Therefore, apoaequorin-expressing mice can be used in the evaluation of the physiological activities of novel peptides.
(§3) Apoaequorin-expressing mice were produced according to the method disclosed in Reference Example 4 of Patent Document (WO02/010371). The apoaequorin-expressing mice were sacrificed, individual organs including thymus, hypothalamus, spleen, bone, aorta, heart, kidney, adrenal gland, pancreas, pituitary gland, uterus, medulla oblongata, and spinal cord were removed; and each of the organs was cut into small cubes of approximately 1 to 2 mm^3. Next, in 5-mL tubes (Rohren-Tubes; manufactured by Sarstedt, No. 55.476), three portions of each of the prepared organs were added to 50 μL of a 10 μmol/L solution of coelenterazine (manufactured by Molecular Probes) dissolved in RPMI 1640 medium, and these were cultured at 37° C. for three hours. After culturing, RPMI 1640 medium was added, and then Peptides 1 to 5 dissolved in RPMI 1640 medium were added 25 seconds after the addition of RPMI 1640 until each peptide had final concentrations of 1 μmol/L and of 5 μmol/L, and the relative luminescence levels were measured every second immediately after the addition of RPMI 1640 medium by using a luminometer (AutoLumat LB953, manufactured by Berthold).

[3] = system: medulla oblongata of apoaequorin-expressing mice; assay: Intracellular calcium ion increase (aequorin luminescence), medulla oblongata; format: cell-based, mouse; settings: peptide at final concentrations of 1 μmol/L and 5 μmol/L
Method: as §1, §2, §3

[4] = system: pituitary cells of the apoaequorin-expressing mice; assay: Intracellular calcium ion increase (aequorin luminescence), pituitary gland; format: cell-based, mouse; settings: for increase of intracellular calcium concentration in pituitary cells (RLU per second): added at 25 seconds; for luminescence (intracellular calcium ion increase) in pituitary gland: peptide at final concentrations of 1 μmol/L and 5 μmol/L
Method: as §1, §2, §3

[5] = system: hypothalamic cells of the apoaequorin-expressing mice; assay: Intracellular calcium ion increase (aequorin luminescence), hypothalamus; format: cell-based, mouse; settings: for increase of intracellular calcium concentration in hypothalamic cells (RLU per second): added at 25 seconds; for luminescence (intracellular calcium ion increase) in hypothalamus: peptide at final concentrations of 1 μmol/L and 5 μmol/L
Method: as §1, §2, §3

[6] = system: thymus of apoaequorin-expressing mice; assay: Intracellular calcium ion increase (aequorin luminescence), thymus; format: cell-based, mouse; settings: peptide at final concentrations of 1 μmol/L and 5 μmol/L
Method: as §1, §2
Apoaequorin-expressing mice were produced according to the method disclosed in Reference Example 4 of Patent Document (WO02/010371). […] After culturing, RPMI 1640 medium was added, and then Peptides 1 to 5 dissolved in RPMI 1640 medium were added 25 seconds after the addition of RPMI 1640 until each peptide had final concentrations of 1 μmol/L and of 5 μmol/L, and the relative luminescence levels were measured every second immediately after the addition of RPMI 1640 medium by using a luminometer (AutoLumat LB953, manufactured by Berthold).

[7] = system: kidney cells of the apoaequorin-expressing mice; assay: Intracellular calcium ion increase (aequorin luminescence), kidney; format: cell-based, mouse
Method: as §1, §2, §3

[8] = system: male rats; settings: direct administration to the PVN of male rats; Non-patent Document 7; cited from earlier work
[9] = 1 μmol/L peptide, added at 25 seconds
[10] = peptide at final concentrations of 1 μmol/L and 5 μmol/L

CC[C@H](C)[C@@H]1NC(=O)[C@H](CCCNC(=N)N)NC(=O)[C@H](CC(=O)O)NC(=O)[C@H](CCSC)NC(=O)[C@H](CCCNC(=N)N)NC(=O)CNC(=O)CNC(=O)[C@H](Cc2ccccc2)NC(=O)[C@@H](NC(=O)[C@H](CO)NC(=O)[C@H](CO)NC(=O)[C@H](CCCNC(=N)N)NC(=O)[C@H](CCCNC(=N)N)NC(=O)[C@H](CC(C)C)NC(=O)[C@@H](N)CO)CSSC[C@@H](C(=O)N[C@@H](CC(N)=O)C(=O)N[C@@H](CO)C(=O)N[C@@H](Cc2ccccc2)C(=O)N[C@@H](CCCNC(=N)N)C(=O)N[C@@H](Cc2ccc(O)cc2)C(=O)O)NC(=O)CNC(=O)[C@H](CC(C)C)NC(=O)CNC(=O)[C@H](CO)NC(=O)[C@H](CCC(N)=O)NC(=O)[C@H](C)NC(=O)CNC1=O [atrial natriuretic peptide]
inhibition of binding of the antiserum to labeled peptide [1]: none of these peptides showed inhibition

NC(=O)CC[C@@H]1NC(=O)[C@H](Cc2ccccc2)NC(=O)[C@H](Cc2ccc(O)cc2)NC(=O)[C@@H](N)CSSC[C@@H](C(=O)N2CCC[C@H]2C(=O)N[C@@H](CCCN=C(N)N)C(=O)NCC(N)=O)NC(=O)[C@H](CC(N)=O)NC1=O [vasopressin]
inhibition of binding of the antiserum to labeled peptide [1]: none of these peptides showed inhibition

ESPGPERVW
amount of the peptide that yields 50% inhibition of the maximum binding level (B/B0 50%) ([1]; antiserum diluted 9×10^5 folds, [125I]-labeled peptide approximately 9 fmol): 9.0 fmol

Leu-enkephalin
inhibition of binding of the antiserum to labeled peptide [1]: none of these peptides showed inhibition

Met-enkephalin-Arg-Gly-Leu (YGGFMRGL) [non-VGF peptide]
inhibition of binding of the antiserum to labeled peptide [1]: none of these peptides showed inhibition

PAMP-20
inhibition of binding of the antiserum to labeled peptide [1]: none of these peptides showed inhibition

Peptide 2: amino acid sequence at position 195 to 206 in human VGF (VNLESPGPERVW; synthetic Peptide 2, VGF-related peptide, human VGF positions 195-206)
increase of intracellular calcium concentration in cardiac cells (RLU per second) [2, 9]: increase of intracellular calcium concentration
luminescence (intracellular calcium ion increase) in heart [2, 10]: luminescence was observed
luminescence (intracellular calcium ion increase) in medulla oblongata [3]: luminescence was observed
increase of intracellular calcium concentration in pituitary cells (RLU per second) ([4]; 1 μmol/L peptide): increase of intracellular calcium concentration
luminescence (intracellular calcium ion increase) in pituitary gland [4]: luminescence was observed
increase of intracellular calcium concentration in hypothalamic cells (RLU per second) ([5]; 1 μmol/L peptide): increase of intracellular calcium concentration
luminescence (intracellular calcium ion increase) in hypothalamus [5]: luminescence was observed

Peptide 3: amino acid sequence at position 485 to 495 in human VGF (NAPPEPVPPPR; synthetic Peptide 3, VGF-related peptide, human VGF positions 485-495)
luminescence (intracellular calcium ion increase) in thymus [6]: luminescence was observed
increase of intracellular calcium concentration in kidney cells (RLU per second) [7, 9]: increase of intracellular calcium concentration
luminescence (intracellular calcium ion increase) in kidney [7, 10]: luminescence was observed
luminescence (intracellular calcium ion increase) in medulla oblongata [3]: luminescence was observed
increase of intracellular calcium concentration in pituitary cells (RLU per second) ([4]; 5 μmol/L peptide): increase of intracellular calcium concentration
luminescence (intracellular calcium ion increase) in pituitary gland [4]: luminescence was observed
increase of intracellular calcium concentration in hypothalamic cells (RLU per second) ([5]; 1 μmol/L peptide): increase of intracellular calcium concentration
luminescence (intracellular calcium ion increase) in hypothalamus [5]: luminescence was observed

Peptide 9: amino acid sequence at position 554 to 577 in human VGF (TLQPPSALRRRHYHHALPPSRHYP; synthetic Peptide 9, VGF-related peptide, human VGF positions 554-577)
increase of intracellular calcium concentration in pituitary cells (RLU per second) ([4]; 5 μmol/L peptide): increase of intracellular calcium concentration
luminescence (intracellular calcium ion increase) in pituitary gland [4]: luminescence was observed
increase of intracellular calcium concentration in hypothalamic cells (RLU per second) ([5]; 5 μmol/L peptide): increase of intracellular calcium concentration
luminescence (intracellular calcium ion increase) in hypothalamus [5]: luminescence was observed

adrenomedullin
inhibition of binding of the antiserum to labeled peptide [1]: none of these peptides showed inhibition

calcitonin
inhibition of binding of the antiserum to labeled peptide [1]: none of these peptides showed inhibition

calcitonin receptor-stimulating peptide
inhibition of binding of the antiserum to labeled peptide [1]: none of these peptides showed inhibition

corticotropin-releasing factor
inhibition of binding of the antiserum to labeled peptide [1]: none of these peptides showed inhibition

glucagon
inhibition of binding of the antiserum to labeled peptide [1]: none of these peptides showed inhibition

melanin-concentrating hormone
inhibition of binding of the antiserum to labeled peptide [1]: none of these peptides showed inhibition

melanocyte-stimulating hormone
inhibition of binding of the antiserum to labeled peptide [1]: none of these peptides showed inhibition

neuromedin U-8
inhibition of binding of the antiserum to labeled peptide [1]: none of these peptides showed inhibition

neuropeptide Y
inhibition of binding of the antiserum to labeled peptide [1]: none of these peptides showed inhibition

peptide HI: non-VGF peptide (HADGVFTSDYSRLLGQISAKKYLESLI; ends and bridges not checked; UniProt P01283 81-107, looked up)
inhibition of binding of the antiserum to labeled peptide [1]: none of these peptides showed inhibition

rat VGF (577-617): known partial peptide, positions 577-617 of rat VGF (HHPDLEAQARRAQEEADAEERRLQEQEELENYIEHVLLHRP; UniProt P20156 577-617, looked up, fragment)
erection inducing activity [8]: showed an erection inducing activity

rat VGF (588-617): known partial peptide, positions 588-617 of rat VGF (AQEEADAEERRLQEQEELENYIEHVLLHRP; UniProt P20156 588-617, looked up, fragment)
erection inducing activity [8]: showed an erection inducing activity

rat VGF (599-617): known partial peptide, positions 599-617 of rat VGF (LQEQEELENYIEHVLLHRP; UniProt P20156 599-617, looked up, fragment)
erection inducing activity [8]: showed an erection inducing activity

secretin
inhibition of binding of the antiserum to labeled peptide [1]: none of these peptides showed inhibition
